Assay results published in the OPERA property sets (Mansouri et al. 2018).

Conditions: for log10 BCF / log10 biotransformation half-life (days): fish

CC(=O)c1cccc(O)c1
boiling point: 296 °C | melting point: 96 °C

C[C@@H]1CCCCN1
boiling point: 120 °C | log10 vapour pressure (mmHg): 1.29

FCF
boiling point: -51.6 °C | log10 vapour pressure (mmHg): 4.1 | melting point: -136 °C

N#CN
log10 vapour pressure (mmHg): -2.43 | melting point: 44 °C

Cc1cccc2ccc(Cl)nc12
boiling point: 287 °C | melting point: 61 °C

CCCC(C)C(C)C (stereo not given)
boiling point: 116 °C | log10 biodegradation half-life (days): 1.42 | log10 vapour pressure (mmHg): 1.37

N[C@@H](Cc1cc(I)c(Oc2cc(I)c(O)c(I)c2)c(I)c1)C(=O)O
melting point: 236 °C

Cc1ccsc1Br
boiling point: 176 °C

C=C[N+](=O)[O-]
boiling point: 98.5 °C | melting point: -55.5 °C

CCCCCCCCCCCCCCCCC#N
boiling point: 349 °C | melting point: 34 °C

Clc1nnc(Cl)c2ccccc12
ready biodegradability: not readily biodegradable

C=CCCCCC
boiling point: 93.6 °C | log10 vapour pressure (mmHg): 1.77 | melting point: -120 °C

CCCCSC#N
boiling point: 186 °C

Clc1cc2c(cc1Cl)Oc1c(Cl)c(Cl)c(Cl)c(Cl)c1O2
log10 vapour pressure (mmHg): -10.4 | melting point: 273 °C | log10 BCF: 4 | log10 biotransformation half-life (days): 1.27

CCCC(C)C(O)CC (stereo not given)
boiling point: 170 °C | melting point: -123 °C

OCCCCl
boiling point: 165 °C

Nc1cc(Cl)ccc1Cl
boiling point: 251 °C | melting point: 50 °C | ready biodegradability: not readily biodegradable | log10 BCF: 1.18 | log10 biotransformation half-life (days): -1.13

O=C1c2ccccc2-c2c(O)cccc21
melting point: 250 °C

CN(CC(=O)O)C(=O)COC(=O)c1ccccc1
melting point: 106 °C

Oc1cccc2sccc12
melting point: 79.8 °C

CC(O)(CCl)CCl
boiling point: 174 °C

Cc1ccc(C)c(C=O)c1
boiling point: 220 °C

NC[C@H]1CCCO1
boiling point: 153 °C

CCCCCCCCCCCCCCCCCC(=O)OC1CCCCC1
melting point: 44 °C

Cc1c([C@H](C)[C@@H]2NC[C@@H](C)C[C@H]2O)ccc2c1C[C@H]1[C@H]2CC=C2C[C@@H](O)CC[C@@]21C
melting point: 206 °C

Cc1cc(C)cc([N+](=O)[O-])c1
boiling point: 274 °C | melting point: 75 °C

CC(C)CCOC(=O)CC(C)C
boiling point: 190 °C | log10 vapour pressure (mmHg): -0.0526

Cc1ccc(NC(O)=NC(C)(C)c2ccccc2)cc1
log10 vapour pressure (mmHg): -8.47 | melting point: 203 °C

CN(CCCC(=O)c1cccnc1)N=O
melting point: 64 °C

O=C(O)CCC(=O)OOC(=O)CCC(=O)O
melting point: 127 °C

Clc1ccc2c(Cl)cccc2c1Cl
log10 Koa: 7.5

CCCCOCCOCCO
boiling point: 231 °C | log10 Henry constant (atm·m³/mol): -8.14 | log10 vapour pressure (mmHg): -1.66 | melting point: -68 °C | ready biodegradability: readily biodegradable

O=C(CCCl)NCc1ccccc1
melting point: 94 °C

Cn1cncc1C[C@H]1COC(=O)[C@@H]1[C@@H](O)c1ccccc1
melting point: 179 °C

CCC(=O)C(=O)CC
boiling point: 130 °C | melting point: -10 °C

O=Cc1cccc(C=O)c1
boiling point: 246 °C | melting point: 89.5 °C

CC(C)OC(=O)c1cc(-c2nn(C)c(C(F)(F)F)c2Br)c(F)cc1Cl
log10 vapour pressure (mmHg): -7.15 | melting point: 80 °C

CC(C)(C)c1ccc(O)c(C(C)(C)C)c1
boiling point: 264 °C | log10 vapour pressure (mmHg): -2.32 | melting point: 56.5 °C | ready biodegradability: not readily biodegradable | log10 BCF: 2.4 | log10 biotransformation half-life (days): -0.37

Clc1cc2c(oc3cc(Cl)c(Cl)c(Cl)c32)c(Cl)c1Cl
log10 Koa: 10.8 | log10 BCF: 3.94 | log10 biotransformation half-life (days): 1

Nc1ccc(Cl)cn1
melting point: 137 °C

CCOC(=O)CCCl
boiling point: 162 °C

CC1(c2ccc(Oc3ccccc3)cc2)OC(=O)N(Nc2ccccc2)C1=O (stereo not given)
log10 vapour pressure (mmHg): -8.32 | melting point: 141 °C

CC(C)CO
log10 Henry constant (atm·m³/mol): -5.01 | log10 Koa: 3.93 | log10 vapour pressure (mmHg): 1.02 | ready biodegradability: readily biodegradable

C=CCSSSC
log10 vapour pressure (mmHg): -1.3

Clc1cccnc1Cl
melting point: 66 °C

Nc1ccc(Cl)c(Cl)c1
boiling point: 272 °C | log10 Koc (L/kg): 2.29 | log10 vapour pressure (mmHg): -2.2 | melting point: 72 °C | ready biodegradability: not readily biodegradable | log10 BCF: 1.11 | log10 biotransformation half-life (days): -1.09

CC(C)NCC(O)COc1cccc2[nH]ccc12 (stereo not given)
melting point: 171 °C

CCc1cccs1
boiling point: 134 °C | log10 vapour pressure (mmHg): 1.05

O=C1C=CC(=O)N1c1ccc(Cc2ccc(N3C(=O)C=CC3=O)cc2)cc1
ready biodegradability: not readily biodegradable

O=C(NO)c1ccccc1O
melting point: 168 °C

C=C=C(C)C
boiling point: 40.8 °C | log10 vapour pressure (mmHg): 2.63 | melting point: -114 °C

COP(=S)(OC)Oc1cc(Cl)c(Br)cc1Cl
log10 vapour pressure (mmHg): -3.89 | melting point: 53.5 °C | log10 BCF: 3.59 | log10 biotransformation half-life (days): 0.97

C(=C\c1ccccc1)/c1ccccc1
boiling point: 307 °C | log10 Koa: 7.48 | log10 vapour pressure (mmHg): -2.61

OCCC(O)CO (stereo not given)
boiling point: 312 °C

Cc1cc2ccoc2cc1C
boiling point: 221 °C

CCCCNCC(=O)Nc1c(C)cccc1Cl
melting point: 45.5 °C

CCC(c1ccccc1)c1ccccc1
boiling point: 282 °C | melting point: 13.3 °C

c1ccc2c(c1)ccc1nc3c(ccc4ccccc43)cc12
melting point: 226 °C | log10 BCF: 2.03 | log10 biotransformation half-life (days): -0.14

Brc1cccc(Oc2ccccc2)c1
log10 Koa: 7.36

O=C(NNc1ccccc1)c1ccccc1
boiling point: 314 °C | melting point: 168 °C

C=CCOc1ccccc1
boiling point: 192 °C

CCc1ccc(C(=O)NN(C(=O)c2cc(C)cc(C)c2)C(C)(C)C)cc1
log10 vapour pressure (mmHg): -7.65 | melting point: 191 °C

NN1C(=O)CSC1=S
melting point: 102 °C

CCCCCCCCCCCCCC(=O)CCCCCCCCCCCCC
melting point: 77.5 °C

CCCCCCOCCO
boiling point: 208 °C | log10 vapour pressure (mmHg): -0.81 | melting point: -45.1 °C

Cc1cc(C)c(C)cn1
boiling point: 188 °C

CC1(C)[C@H]2CC[C@]1(C)C(=O)[C@H]2O
melting point: 206 °C

O=C(O)C(O)c1ccccc1 (racemic)
melting point: 124 °C

Cc1nc(C(F)(F)F)c(C(O)=Nc2c(Br)cc(OC(F)(F)F)cc2Br)s1
melting point: 178 °C

NC(=O)Nc1ccccc1
boiling point: 238 °C | log10 Koc (L/kg): 1.35 | melting point: 147 °C | ready biodegradability: not readily biodegradable

CCCCCC(=O)OC
boiling point: 150 °C | log10 Henry constant (atm·m³/mol): -3.44 | log10 vapour pressure (mmHg): 0.57 | melting point: -71 °C

CCC(C)C(CC)C(C)C (stereo not given)
boiling point: 162 °C

CC(=O)c1cc2ccccc2o1
melting point: 76 °C

Cl.NCCc1ccccc1
melting point: 218 °C

Clc1ccc(Oc2ccccc2Cl)cc1
log10 vapour pressure (mmHg): -3.15

CC(=O)NC(Cc1c[nH]c2ccccc12)C(=O)O (stereo not given)
melting point: 190 °C

Cc1ccc2nc(-c3ccc(N)cc3)sc2c1
boiling point: 434 °C | melting point: 195 °C

Clc1cc2oc3cc(Cl)c(Cl)c(Cl)c3c2cc1Cl
log10 vapour pressure (mmHg): -8.76 | melting point: 225 °C | log10 BCF: 3.58

CC(C)NCC(O)c1cc(O)cc(O)c1 (stereo not given)
melting point: 100 °C

CCn1ccc2ccccc21
boiling point: 252 °C | melting point: 105 °C

Cc1ccc(I)cc1
boiling point: 211 °C | melting point: 36.5 °C

CC1CS(=O)(=O)CCN1N=Cc1ccc([N+](=O)[O-])o1 (stereo not given)
melting point: 181 °C

O=CN1CCCCC1
boiling point: 222 °C

O=C(O)c1cncc(C(=O)O)c1
melting point: 324 °C

CC[C@H](C(N)=O)[C@@H](C)CC
melting point: 114 °C

Cc1ccc(-c2ccccc2)cc1
boiling point: 268 °C | log10 biodegradation half-life (days): 1.58 | melting point: 49.5 °C

COc1ccccc1CC(=O)O
melting point: 124 °C

Nc1nc[nH]n1
log10 Koc (L/kg): 1.25 | log10 vapour pressure (mmHg): -6.36 | melting point: 159 °C | ready biodegradability: not readily biodegradable | log10 BCF: 0.49

Clc1ccc(-c2c(Cl)ccc(Cl)c2Cl)cc1
log10 Henry constant (atm·m³/mol): -3.85 | log10 Koa: 8.41 | log10 biotransformation half-life (days): 2.35

CCCC(=O)C(C)CC (stereo not given)
boiling point: 154 °C

O=C(O)c1cc([N+](=O)[O-])ccc1Cl
melting point: 166 °C

C[Si](C)(C)CC(=O)O
melting point: 41 °C

CN(C)CCCN(CCCN(C)C)CCCN(C)C
ready biodegradability: not readily biodegradable

C1=CCC2CC2C1 (stereo not given)
boiling point: 125 °C | log10 vapour pressure (mmHg): 1.36

OC(c1ccccc1)c1ccccc1
boiling point: 298 °C | log10 Koc (L/kg): 2.34 | log10 vapour pressure (mmHg): -4.56 | melting point: 69 °C | ready biodegradability: readily biodegradable

O=[N+]([O-])c1ccccc1C(F)(F)F
boiling point: 217 °C | melting point: 32.5 °C

C=C(C)C(=O)OCC(CC)(COC(=O)C(=C)C)COC(=O)C(=C)C
ready biodegradability: readily biodegradable

COc1ccc(CC(C)(C)C)cc1
boiling point: 238 °C

O=C(O)c1ccccc1Cl
boiling point: 287 °C | log10 vapour pressure (mmHg): -3.18 | melting point: 140 °C | ready biodegradability: not readily biodegradable | log10 BCF: 1

FCCCCBr
boiling point: 135 °C

Cn1cc[nH]c1=S
boiling point: 280 °C | melting point: 146 °C

CC1(C)CC(=O)CC(C)(C)N1
boiling point: 205 °C | melting point: 36 °C | ready biodegradability: not readily biodegradable

O=C(O)c1cccc(Oc2ccccc2)c1
melting point: 150 °C

CC(=O)O[C@H]1C[C@@]2(C)[C@@H](C[C@@H](O)[C@H]3[C@@]4(C)CC[C@@H](O)[C@@H](C)[C@@H]4CC[C@@]32C)/C1=C(\CCC=C(C)C)C(=O)O
melting point: 192 °C

CCOC(=O)CC(C)=O
boiling point: 181 °C | log10 vapour pressure (mmHg): -0.108 | melting point: -45 °C

Cc1cc(=O)nc(C(C)C)[nH]1
melting point: 173 °C | ready biodegradability: not readily biodegradable | log10 BCF: 0.26

C[C@]12CC[C@H](O)C=C1CC[C@@H]1[C@@H]2CC[C@]2(C)[C@@H](c3ccc(=O)oc3)CC[C@]12O
melting point: 235 °C

CC(=O)[C@@H]1CC[C@H]2[C@@H]3CCC4=CC(=O)CC[C@]4(C)[C@H]3C(=O)C[C@]12C
melting point: 172 °C

CCCCC1CCC(O)C(OC)C1 (stereo not given)
ready biodegradability: readily biodegradable

CCCCCCCCCCCCCCCCCC(=O)OCCO
melting point: 60.5 °C

O=C1CN(N=Cc2ccc([N+](=O)[O-])o2)C(=O)N1
melting point: 263 °C

C[Si](C)(C)OS(=O)(=O)C(F)(F)F
boiling point: 140 °C

Cc1cccc2c1CCCC2C (stereo not given)
boiling point: 239 °C

O=C1C2CC=CCC2C(=O)N1SC(Cl)(Cl)Cl (stereo not given)
log10 Koc (L/kg): 2.3 | log10 vapour pressure (mmHg): -7.05 | melting point: 178 °C | ready biodegradability: not readily biodegradable | log10 BCF: 1.98

O=C(O)C(Br)Br
log10 Henry constant (atm·m³/mol): -8.35 | melting point: 49 °C

CN(C)C(=O)Oc1ccc[n+](C)c1.[Br-]
melting point: 153 °C

Nc1ccc(-c2ccccc2)cc1
boiling point: 302 °C | melting point: 53.5 °C

CCN(C(=O)Oc1cccc(NC(=O)OC(C)C)c1)c1ccccc1
melting point: 110 °C

Cc1ccc(C(=O)NN)cc1
melting point: 117 °C

Clc1cc(Cl)cc(-c2ccccc2)c1
log10 BCF: 3.77 | log10 biotransformation half-life (days): 1.11

BrCC(Br)CBr
boiling point: 222 °C | melting point: 16.9 °C

O=C(O)CNCP(=O)(O)O
log10 Koc (L/kg): 3.32 | melting point: 190 °C

Cc1ccc2ccc3ccc(C)cc3c2c1
melting point: 145 °C
